In paper PMC5423611, “An activity-integrated strategy of the identification, screening and determination of potential neuraminidase inhibitors from Radix Scutellariae” (PLoS ONE, 2017):
Values after ≈ are worked out from the molar mass of the structure shown. Read-outs that look alike come from different tables or passages of the source.

Target: T1, neuraminidase (NA), neuraminidase inhibitors screen kit
T1 construct: enzyme of a commercial Beyotime screening kit
Format: biochemical

[1] = 2'-(4-methylumbelliferyl)-alpha-D-N-acetylneuraminic acid substrate, 37 °C, 30 min

Row | SMILES | IC50 [µg/mL] | IC50 [1] [µg/mL]
1 | O=C(O)[C@H]1O[C@@H](Oc2cc3oc(-c4ccc(O)cc4)cc(=O)c3c(O)c2O)[C@H](O)[C@@H](O)[C@@H]1O [compound 5, scutellarin] | 321.8 ± 62.8 (≈ 696 µM) | 
2 | O=C(O)[C@H]1O[C@@H](Oc2cc3oc(-c4ccccc4)cc(=O)c3c(O)c2O)[C@H](O)[C@@H](O)[C@@H]1O [compound 11, baicalin] |  | 267.3 ± 37.8 (≈ 599 µM)
3 | O=C(O)[C@H]1O[C@@H](Oc2cc(O)c3c(=O)cc(-c4ccccc4)oc3c2)[C@H](O)[C@@H](O)[C@@H]1O [compound 15, chrysin-7-O-glucuronide] |  | 493.6 ± 64.2 (≈ 1150 µM)
4 | O=c1cc(-c2ccccc2)oc2cc(O)c(O)c(O)c12 [compound 22, baicalein] |  | 397.7 ± 9.91 (≈ 1470 µM)
5 | COc1c(O)cc2oc(-c3ccccc3)cc(=O)c2c1O [compound 25, oroxylin A] |  | > 1000
6 | O=c1cc(-c2ccccc2)oc2cc(O)cc(O)c12 [compound 24, chrysin] |  | 402.80 ± 67.8 (≈ 1580 µM)
7 | COc1c(O)cc(O)c2c(=O)cc(-c3ccccc3)oc12 [compound 23, wogonin] |  | 331.1 ± 49.4 (≈ 1160 µM)
8 | O=c1cc(-c2ccc(O)cc2)oc2cc(O)c(O)c(O)c12 [compound 10, scutellarein] |  | 664.5 ± 26.2 (≈ 2320 µM)
9 | COc1c(O[C@@H]2O[C@H](C(=O)O)[C@@H](O)[C@H](O)[C@H]2O)cc(O)c2c(=O)cc(-c3ccccc3)oc12 [compound 19, wogonoside] |  | 428.3 ± 18.9 (≈ 930 µM)
